Laboratory results: patent EP3928779A1 (Chugai Seiyaku Kabushiki Kaisha, priority 2014, dated 2016)

Test system: rat small-intestinal brush border membrane vesicles
Assay: Inhibitory effect on 33PO4 uptake into rat small-intestinal brush border membrane vesicles (rapid filtration method)
Type: biochemical
Conditions: 33PO4 uptake into rat small-intestinal BBMVs; test compound 1 µM; reacted for 60 seconds
Description: Brush border membrane vesicles (BBMVs) were prepared using the upper region of the small intestine of each Wistar female rat (4-5 weeks old). […] The ^33PO4 transport activity of the small-intestinal BBMVs was determined by the rapid filtration method. […] Then, ice-cold buffer C (110 mM NaCl, 1 mM KH2PO4, and 10 mM HEPES (pH 7.5)) was added to each reaction mixture, which was immediately suctionfiltered through a Millipore filter. The filter was washed with buffer C, and each sample was then dissolved in a liquid scintillator. The amount of ^33PO4 uptake into BBMVs was measured using a liquid scintillation counter. […]

Row | Compound | Rate of uptake inhibition (%) (1 µM)
1 | 1-[(2,3-Difluorophenyl)methyl]-4a-ethyl-4-hydroxy-N-[5-methyl-2-(trifluoromethyl)furan-3-yl]-2-oxo-5,6,7,8-tetrahydropyrido[1,2-b]pyridazine-3-carboxamide [Example 19] | 41
2 | 1-[(3-Fluorophenyl)methyl]-4-hydroxy-4a-methyl-N-[5-methyl-2-(trifluoromethyl)furan-3-yl]-2-oxo-5,6,7,8-tetrahydropyrido[1,2-b]pyridazine-3-carboxamide [Example 18] | 12
3 | Cc1cc(NC(=O)C2=C(O)[C@@H]3CCCN3N(Cc3cccc(F)c3)C2=O)c(C(F)(F)F)o1 [Example 1, (4aS)-1-[(3-Fluorophenyl)methyl]-4-hydroxy-N-[5-methyl-2-(trifluoromethyl)furan-3-yl]-2-oxo-4a,5,6,7-tetrahydropyrrolo[1,2-b]pyridazine-3-carboxamide] | 28
4 | Cc1cc(NC(=O)C2=C(O)[C@H]3CCCN3N(Cc3cccc(F)c3)C2=O)c(C(F)(F)F)o1 [Example 2, (4aR)-1-[(3-Fluorophenyl)methyl]-4-hydroxy-N-[5-methyl-2-(trifluoromethyl)furan-3-yl]-2-oxo-4a,5,6,7-tetrahydropyrrolo[1,2-b]pyridazine-3-carboxamide] | 19
5 | Cc1cc(NC(=O)C2=C(O)[C@@H]3CC(C)(C)CN3N(Cc3cccc(F)c3)C2=O)c(C(F)(F)F)o1 [Example 3] | 11
6 | Cc1cc(NC(=O)C2=C(O)[C@@H]3CCC(C)(C)N3N(Cc3cccc(F)c3)C2=O)c(C(F)(F)F)o1 [Example 4, (4aS)-1-[(3-Fluorophenyl)methyl]-4-hydroxy-7,7-dimethyl-N-[5-methyl-2-(trifluoromethyl)furan-3-yl]-2-oxo-5.6-dihydro-4aH-pyrrolo[1,2-b]pyridazine-3-carboxamide] | 32
7 | COCCN(C)CCOc1ccc(CN2C(=O)C(C(=O)Nc3ccc(C(F)(F)F)cc3-c3cc(C(F)(F)F)ncn3)=C(O)C3(CCC3)N2C)c(F)c1F [Example 13, 6-[[2,3-Difluoro-4-[2-[2-methoxyethyl(methyl)amino]ethoxy]phenyl]methyl]-9-hydroxy-5-methyl-7-oxo-N-[4-(trifluoromethyl)-2-[6-(trifluoromethyl)pyrimidin-4-yl]phenyl]-5,6-diazaspiro[3.5]non-8-ene-8-carboxamide] | 58
8 | Cc1cc(NC(=O)C2=C(O)[C@H]3CCCCN3N(Cc3cccc(F)c3)C2=O)c(C(F)(F)F)o1 [Example 15, (4aR)-1-[(3-Fluorophenyl)methyl]-4-hydroxy-N-[5-methyl-2-(trifluoromethyl)furan-3-yl]-2-oxo-5,6,7,8-tetrahydro-4aH-pyrido[1,2-b]pyridazine-3-carboxamide] | 42
9 | C[C@]12CCCN1N(Cc1cccc(F)c1F)C(=O)C(C(=O)Nc1ccc(C(F)(F)F)cc1-c1cc(C(F)(F)F)ncn1)=C2O [Example 21, (4aR)-1-[(2,3-Difluorophenyl)methyl]-4-hydroxy-4a-methyl-2-oxo-N-[4-(trifluoromethyl)-2-[6-(trifluoromethyl)pyrimidin-4-yl]phenyl]-6,7-dihydro-5H-pyrrolo[1,2-b]pyridazine-3-carboxamide] | 61
10 | Cc1c(C#N)ncnc1-c1cc(C(F)(F)F)ccc1NC(=O)C1=C(O)[C@@]2(C)CCCN2N(Cc2ccc(OCCN3CCOCC3)c(F)c2F)C1=O [Example 22, (4aR)-N-[2-(6-Cyano-5-methylpyrimidin-4-yl)-4-(trifluoromethyl)phenyl]-1-[[2,3-ditluoro-4-(2-morpholin-4-ylethoxy)phenyl]methyl]-4-hydroxy-4a-methyl-2-oxo-6,7-dihydro-5H-pyrrolo[1,2-b]pyridazine-3-carboxamide] | 50
11 | C[C@]12CCCN1N(Cc1cccc(F)c1F)C(=O)C(C(=O)Nc1ccc(C(F)(F)F)cc1-c1ncnc(C#N)c1Cl)=C2O [Example 23] | 84
12 | Cc1c(C#N)ncnc1-c1cc(C(F)(F)F)ccc1NC(=O)C1=C(O)[C@@]2(C)CCCN2N(Cc2cccc(F)c2F)C1=O [Example 24] | 76
13 | COc1c(C#N)ncnc1-c1cc(C(F)(F)F)ccc1NC(=O)C1=C(O)[C@@]2(C)CCCN2N(Cc2cccc(F)c2F)C1=O [Example 25] | 82
14 | CCCCCN1C(=O)C(C(=O)Nc2ccc(C(F)(F)F)cc2-c2ccc(C(F)(F)F)nc2)=C(O)[C@@]2(C)CCCN12 [Example 26] | 72
15 | C[C@]12CCCN1N(Cc1cccc([N+](=O)[O-])c1)C(=O)C(C(=O)Nc1ccc(Br)c(F)c1)=C2O [Example 27] | 76
16 | C[C@]12CCCN1N(Cc1cccc(F)c1F)C(=O)C(C(=O)Nc1ccc(Br)c(F)c1)=C2O [Example 28] | 72
17 | C[C@]12CCCN1N(Cc1cccc(F)c1F)C(=O)C(C(=O)Nc1cc(F)c(Br)c(F)c1)=C2O [Example 29] | 75
18 | CC1(C)CC[C@]2(C)C(O)=C(C(=O)Nc3cc(C(F)(F)F)ccc3-c3ccc(C(F)(F)F)nc3)C(=O)N(Cc3cccc(F)c3F)N12 [Example 63] | 72
19 | C[C@]12CCCN1N(Cc1cccc(F)c1F)C(=O)C(C(=O)Nc1ccc(Br)cc1-c1cc(C(F)(F)F)ncn1)=C2O [Example 64] | 77
20 | COC(=O)c1cccc(-c2cc(C(F)(F)F)ccc2NC(=O)C2=C(O)[C@@]3(C)CCCN3N(Cc3cccc(F)c3F)C2=O)c1OC [Example 65] | 98
21 | CCOc1cccc(-c2cc(C(F)(F)F)ccc2NC(=O)C2=C(O)[C@@]3(C)CCCN3N(Cc3cccc(F)c3F)C2=O)c1OC [Example 66] | 96
22 | C[C@]12CCCN1N(Cc1cccc(F)c1F)C(=O)C(C(=O)Nc1ccc(C(F)(F)F)cc1-c1cnc(Cl)nc1)=C2O [Example 67] | 91

Row | Compound | Rate of uptake inhibition (%) (1 µM)
23 | C[C@]12CCCN1N(Cc1cccc(F)c1F)C(=O)C(C(=O)Nc1ccc(C(F)(F)F)cc1-c1cnc(Cl)c(C#N)c1)=C2O [Example 68, (4aR)-N-[2-(6-Chloro-5-cyanopyridin-3-yl)-4-(trifluoromethyl)phenyl]-1-[(2,3-difluorophenyl)methyl]-4-hydroxy-4a-methyl-2-oxo-6,7-dihydro-5H-pyrrolo[1,2-b]pyridazine-3-carboxamide] | 84
24 | Cc1c(Cl)ncnc1-c1cc(C(F)(F)F)ccc1NC(=O)C1=C(O)[C@@]2(C)CCCN2N(Cc2cccc(F)c2F)C1=O [Example 69] | 74
25 | C[C@]12CCCN1N(Cc1cccc(F)c1F)C(=O)C(C(=O)Nc1ccc(C(F)(F)F)cc1-c1ncnc(Cl)c1Cl)=C2O [Example 70] | 79
26 | CN(C)S(=O)(=O)c1ccc(-c2cc(C(F)(F)F)ccc2NC(=O)C2=C(O)[C@@]3(C)CCCN3N(Cc3cccc(F)c3F)C2=O)s1 [Example 71] | 97
27 | COc1ncc(-c2cc(C(F)(F)F)ccc2NC(=O)C2=C(O)[C@@]3(C)CCCN3N(Cc3cccc(F)c3F)C2=O)c(OC)n1 [Example 72] | 92
28 | C[C@]12CCCN1N(Cc1cccc(F)c1F)C(=O)C(C(=O)Nc1ccc(C(F)(F)F)cc1-c1cnc(Br)cn1)=C2O [Example 73] | 74
29 | C[C@]12CCCN1N(Cc1cccc(F)c1F)C(=O)C(C(=O)Nc1ccc(C(F)(F)F)cc1-c1cnc(Cl)cn1)=C2O [Example 74] | 82
30 | C[C@]12CCCN1N(Cc1cccc(F)c1F)C(=O)C(C(=O)Nc1ccc(Br)cc1F)=C2O [Example 75] | 74
31 | C[C@]12CCCN1N(Cc1cccc(F)c1F)C(=O)C(C(=O)Nc1ccc(Cl)cc1F)=C2O [Example 76] | 77
32 | C[C@]12CCCN1N(Cc1cccc(F)c1F)C(=O)C(C(=O)Nc1ccc(Br)cc1)=C2O [Example 77] | 80
33 | C[C@]12CCCN1N(Cc1cccc(F)c1F)C(=O)C(C(=O)Nc1ccc(Br)cn1)=C2O [Example 78] | 71
34 | C[C@]12CCCN1N(Cc1cccc(F)c1F)C(=O)C(C(=O)Nc1ccc(Cl)cn1)=C2O [Example 79] | 71
35 | COc1cc(C)c(-c2cc(C(F)(F)F)ccc2NC(=O)C2=C(O)[C@@]3(C)CCCN3N(Cc3cccc(F)c3F)C2=O)cn1 [Example 80] | 75
36 | COc1cncc(-c2cc(C(F)(F)F)ccc2NC(=O)C2=C(O)[C@@]3(C)CCCN3N(Cc3cccc(F)c3F)C2=O)c1 [Example 81] | 74
37 | C[C@]12CCCN1N(Cc1cccc(F)c1F)C(=O)C(C(=O)Nc1ccc(C(F)(F)F)cc1-c1cncc(C#N)c1)=C2O [Example 82] | 100
38 | C[C@]12CCCN1N(Cc1cccc(F)c1F)C(=O)C(C(=O)Nc1ccc(C(F)(F)F)cc1-c1cnc3ccccc3c1)=C2O [Example 83] | 90
39 | C[C@]12CCCN1N(Cc1cccc(F)c1F)C(=O)C(C(=O)Nc1ccc(C(F)(F)F)cc1-c1cc(Cl)cnc1Cl)=C2O [Example 84] | 91
40 | C[C@]12CCCN1N(Cc1cccc(F)c1F)C(=O)C(C(=O)Nc1ccc(C(F)(F)F)cc1-c1ccc(C(F)(F)F)nc1Br)=C2O [Example 85] | 71
41 | C[C@]12CCCN1N(Cc1cccc(F)c1F)C(=O)C(C(=O)Nc1ccc(Cl)cc1-c1ccc(C(F)(F)F)nc1)=C2O [Example 86] | 83
42 | CN(C)S(=O)(=O)c1ccc(-c2nc(C(F)(F)F)ccc2NC(=O)C2=C(O)[C@@]3(C)CCCN3N(Cc3cccc(F)c3F)C2=O)cc1 [Example 87] | 84
43 | C[C@]12CCCN1N(Cc1cccc(F)c1F)C(=O)C(C(=O)Nc1ccc(C(F)(F)F)cc1)=C2O [Example 89] | 67
